Assays:
PBMC = experiment: Inhibition of IL-5 secretion in anti-human CD3 antibody/anti-human CD28 antibody/IL23-stimulated human PBMC after 48 hrs by ELISA; type: functional, cell-based
[1] = biological target: Receptor tyrosine-protein kinase erbB-2 (Homo sapiens) (UniProt P04626); experiment: Inhibition of recombinant human His-tagged ERBB2 cytoplasmic domain expressed in baculovirus expression system at 500 nM by Z-LYTE assay relative to control
[2] = biological target: Glycogen synthase kinase-3 alpha (Homo sapiens) (UniProt P49840); experiment: Inhibition of GSK3alpha (unknown origin) at 500 nM by Z-LYTE assay relative to control
[3] = biological target: Glycogen synthase kinase-3 beta (Homo sapiens) (UniProt P49841); experiment: Inhibition of recombinant full-length human His-tagged GSK3beta expressed in baculovirus expression system at 500 nM by Z-LYTE assay relative to control
[4] = biological target: Mast/stem cell growth factor receptor Kit (Homo sapiens) (UniProt P10721); experiment: Inhibition of recombinant human His-tagged KIT cytoplasmic domain (544 to 976 residues) expressed in baculovirus expression system at 500 nM by Z-LYTE assay relative to control
[5] = biological target: Tyrosine-protein kinase Lyn (Homo sapiens) (UniProt P07948); experiment: Inhibition of recombinant human full-length N-terminal GST-tagged LYN-A expressed in insect cells at 500 nM by Z-LYTE assay relative to control
[6] = biological target: Mitogen-activated protein kinase 1 (Homo sapiens) (UniProt P28482); experiment: Inhibition of recombinant human full length GST-tagged ERK2 expressed in Escherichia coli at 500 nM by Z-LYTE assay relative to control
[7] = biological target: T1, Mitogen-activated protein kinase 12 (Homo sapiens) (UniProt P53778); experiment: Inhibition of recombinant human full length His-tagged p38-gamma expressed in baculovirus expression system at 500 nM by Z-LYTE assay relative to control
T1 sequence (whole entry): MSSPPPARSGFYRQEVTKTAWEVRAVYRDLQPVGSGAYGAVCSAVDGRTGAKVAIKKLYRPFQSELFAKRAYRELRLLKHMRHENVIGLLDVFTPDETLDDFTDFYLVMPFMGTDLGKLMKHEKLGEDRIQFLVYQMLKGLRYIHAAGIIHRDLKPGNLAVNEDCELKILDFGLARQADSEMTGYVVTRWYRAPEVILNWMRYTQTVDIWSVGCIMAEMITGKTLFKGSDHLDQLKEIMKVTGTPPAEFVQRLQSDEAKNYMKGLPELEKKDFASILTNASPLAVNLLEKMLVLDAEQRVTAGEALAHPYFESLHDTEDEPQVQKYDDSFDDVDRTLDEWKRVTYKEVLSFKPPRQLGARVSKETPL

[8] = biological target: Mitogen-activated protein kinase 8 (Homo sapiens) (UniProt P45983); experiment: Inhibition of recombinant human full length His-tagged JNK1 expressed in baculovirus expression system at 500 nM by Z-LYTE assay relative to control
[9] = biological target: Hepatocyte growth factor receptor (Homo sapiens) (UniProt P08581); experiment: Inhibition of recombinant truncated human His-tagged MET expressed in mammalian expression system at 500 nM by Z-LYTE assay relative to control
[10] = biological target: Serine/threonine-protein kinase PAK 2 (Homo sapiens) (UniProt Q13177); experiment: Inhibition of recombinant human full length GST-tagged PAK2 expressed in baculovirus expression system at 500 nM by Z-LYTE assay relative to control
[11] = biological target: Platelet-derived growth factor receptor alpha (Homo sapiens) (UniProt P16234); experiment: Inhibition of recombinant human GST-tagged PDGFRalpha cytoplasmic domain (550 to 1089 residues) expressed in baculovirus expression system at 500 nM by Z-LYTE assay relative to control
[12] = biological target: Phosphatidylinositol 4,5-bisphosphate 3-kinase catalytic subunit gamma isoform (Homo sapiens) (UniProt P48736); experiment: Inhibition of recombinant full length human His-tagged PI3K p110ggamma at 500 nM by Z-LYTE assay relative to control
[13] = biological target: Serine/threonine-protein kinase pim-2 (Homo sapiens) (UniProt Q9P1W9); experiment: Inhibition of recombinant full length human GST-tagged PIM2 expressed in baculovirus expression system at 500 nM by Z-LYTE assay relative to control
[14] = biological target: Serine/threonine-protein kinase pim-3 (Homo sapiens) (UniProt Q86V86); experiment: Inhibition of recombinant full length human GST-tagged PIM3 expressed in insect cells at 500 nM by Z-LYTE assay relative to control
[15] = biological target: Protein kinase C alpha type (Homo sapiens) (UniProt P17252); experiment: Inhibition of recombinant human full length untagged PKCalpha expressed in baculovirus expression system at 500 nM by Z-LYTE assay relative to control
[16] = biological target: Rho-associated protein kinase 2 (Homo sapiens) (UniProt O75116); experiment: Inhibition of recombinant human N-terminal GST-tagged ROCK2 cytoplasmic domain (1 to 552 residues) expressed in baculovirus expression system at 500 nM by Z-LYTE assay relative to control
[17] = biological target: Proto-oncogene tyrosine-protein kinase ROS (Homo sapiens) (UniProt P08922); experiment: Inhibition of recombinant human GST-tagged ROS1 cytoplasmic domain (1883 to 2347 residues) expressed in baculovirus expression system at 500 nM by Z-LYTE assay relative to control
[18] = biological target: Nuclear receptor ROR-gamma (Homo sapiens, UniProt P51449); experiment: Antagonist activity at GAL4-DBD fused human RORgamma LBD expressed in HEK293 cells after 18 hrs by luciferase reporter gene assay; type: cell-based
[19] = biological target: Luciferin 4-monooxygenase (Photinus pyralis, UniProt P08659); experiment: Inhibition of firefly luciferase activity expressed in HEK293 cells after 18 hrs by luminescence assay; type: cell-based
[20] = biological target: PI3-kinase p110-alpha/p85-alpha (Homo sapiens) (UniProt P27986+P42336); experiment: Inhibition of recombinant full length human His-tagged PI3K p110alpha/p85alpha at 500 nM by Z-LYTE assay relative to control; type: protein-complex assay

Sequence of Mitogen-activated protein kinase 8 (Homo sapiens) (P45983 whole entry, the tested form may be a part): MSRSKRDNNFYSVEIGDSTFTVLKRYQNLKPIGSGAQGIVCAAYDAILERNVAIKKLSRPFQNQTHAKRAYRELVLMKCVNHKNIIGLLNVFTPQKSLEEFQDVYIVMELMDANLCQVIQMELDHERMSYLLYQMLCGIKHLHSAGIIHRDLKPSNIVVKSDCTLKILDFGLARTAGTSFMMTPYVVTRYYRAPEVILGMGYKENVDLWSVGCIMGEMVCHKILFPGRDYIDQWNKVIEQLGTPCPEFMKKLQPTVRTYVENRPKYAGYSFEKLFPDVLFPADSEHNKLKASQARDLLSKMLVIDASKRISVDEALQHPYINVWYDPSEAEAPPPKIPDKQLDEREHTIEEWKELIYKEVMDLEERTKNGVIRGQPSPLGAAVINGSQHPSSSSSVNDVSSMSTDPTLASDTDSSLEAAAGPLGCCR
Sequence of Rho-associated protein kinase 2 (Homo sapiens) (O75116 whole entry, looked up, the tested form may be a part): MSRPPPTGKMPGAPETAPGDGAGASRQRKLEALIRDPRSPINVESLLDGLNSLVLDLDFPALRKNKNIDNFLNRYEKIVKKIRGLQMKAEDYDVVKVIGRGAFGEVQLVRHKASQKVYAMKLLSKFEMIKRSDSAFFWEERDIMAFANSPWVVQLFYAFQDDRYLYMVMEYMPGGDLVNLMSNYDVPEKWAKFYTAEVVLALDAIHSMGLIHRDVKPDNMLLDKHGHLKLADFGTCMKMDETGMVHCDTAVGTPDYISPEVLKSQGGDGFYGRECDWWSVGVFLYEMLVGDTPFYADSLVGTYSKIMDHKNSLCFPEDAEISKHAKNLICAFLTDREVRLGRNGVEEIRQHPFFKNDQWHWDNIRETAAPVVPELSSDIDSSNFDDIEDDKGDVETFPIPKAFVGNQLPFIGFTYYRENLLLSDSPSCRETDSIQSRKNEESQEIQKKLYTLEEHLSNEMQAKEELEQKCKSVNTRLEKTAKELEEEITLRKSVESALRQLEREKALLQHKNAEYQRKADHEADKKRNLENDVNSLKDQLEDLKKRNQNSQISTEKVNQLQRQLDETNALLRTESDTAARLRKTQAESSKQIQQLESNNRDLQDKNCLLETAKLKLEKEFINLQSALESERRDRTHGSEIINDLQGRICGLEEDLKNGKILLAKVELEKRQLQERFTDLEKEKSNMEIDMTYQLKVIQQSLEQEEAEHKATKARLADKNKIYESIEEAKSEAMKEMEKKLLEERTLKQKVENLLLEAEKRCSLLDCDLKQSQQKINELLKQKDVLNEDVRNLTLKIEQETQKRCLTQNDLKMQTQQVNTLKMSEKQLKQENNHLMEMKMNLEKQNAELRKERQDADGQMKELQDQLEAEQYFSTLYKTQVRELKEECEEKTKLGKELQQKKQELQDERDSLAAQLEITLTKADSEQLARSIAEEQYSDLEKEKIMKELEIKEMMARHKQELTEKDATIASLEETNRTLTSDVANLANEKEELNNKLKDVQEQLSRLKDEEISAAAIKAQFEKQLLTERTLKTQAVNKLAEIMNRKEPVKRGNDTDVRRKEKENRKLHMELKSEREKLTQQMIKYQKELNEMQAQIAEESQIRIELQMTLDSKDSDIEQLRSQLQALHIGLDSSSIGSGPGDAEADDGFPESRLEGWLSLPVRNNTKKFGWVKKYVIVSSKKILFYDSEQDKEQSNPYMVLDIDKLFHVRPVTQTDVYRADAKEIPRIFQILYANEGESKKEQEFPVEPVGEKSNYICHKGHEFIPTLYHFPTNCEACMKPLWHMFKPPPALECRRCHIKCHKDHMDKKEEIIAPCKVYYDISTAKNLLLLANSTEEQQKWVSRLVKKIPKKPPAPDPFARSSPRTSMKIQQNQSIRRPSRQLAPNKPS
Sequence of Phosphatidylinositol 4,5-bisphosphate 3-kinase catalytic subunit gamma isoform (Homo sapiens) (P48736 whole entry, looked up, canonical isoform): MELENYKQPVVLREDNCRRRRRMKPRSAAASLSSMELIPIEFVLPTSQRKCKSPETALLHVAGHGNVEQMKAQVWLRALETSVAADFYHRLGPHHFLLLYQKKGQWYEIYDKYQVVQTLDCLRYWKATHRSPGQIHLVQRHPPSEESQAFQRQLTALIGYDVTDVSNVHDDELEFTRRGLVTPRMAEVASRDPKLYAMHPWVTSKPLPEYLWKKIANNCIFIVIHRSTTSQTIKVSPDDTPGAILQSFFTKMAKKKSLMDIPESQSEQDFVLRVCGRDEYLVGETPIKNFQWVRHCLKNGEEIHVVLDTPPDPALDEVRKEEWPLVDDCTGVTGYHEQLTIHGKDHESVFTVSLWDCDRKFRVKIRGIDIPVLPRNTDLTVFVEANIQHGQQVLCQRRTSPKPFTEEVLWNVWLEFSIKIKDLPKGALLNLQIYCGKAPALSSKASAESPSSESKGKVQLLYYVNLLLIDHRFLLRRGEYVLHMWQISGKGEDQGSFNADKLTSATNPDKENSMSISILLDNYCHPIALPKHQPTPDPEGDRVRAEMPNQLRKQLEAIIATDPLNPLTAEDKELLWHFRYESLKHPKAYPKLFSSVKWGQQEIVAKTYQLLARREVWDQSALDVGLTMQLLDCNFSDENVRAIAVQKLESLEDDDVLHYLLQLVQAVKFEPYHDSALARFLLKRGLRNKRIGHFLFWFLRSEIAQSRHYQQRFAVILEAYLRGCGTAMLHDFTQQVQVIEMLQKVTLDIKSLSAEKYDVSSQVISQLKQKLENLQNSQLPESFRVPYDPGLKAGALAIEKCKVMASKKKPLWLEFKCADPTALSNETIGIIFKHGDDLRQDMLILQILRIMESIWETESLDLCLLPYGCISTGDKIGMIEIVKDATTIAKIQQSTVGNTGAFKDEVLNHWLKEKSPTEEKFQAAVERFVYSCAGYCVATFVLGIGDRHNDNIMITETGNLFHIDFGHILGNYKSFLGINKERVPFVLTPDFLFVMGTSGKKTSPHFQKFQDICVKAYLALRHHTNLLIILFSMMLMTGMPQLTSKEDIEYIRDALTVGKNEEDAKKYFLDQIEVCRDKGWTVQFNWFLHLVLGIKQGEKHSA
Sequence of Receptor tyrosine-protein kinase erbB-2 (Homo sapiens) (P04626 whole entry, the tested form may be a part): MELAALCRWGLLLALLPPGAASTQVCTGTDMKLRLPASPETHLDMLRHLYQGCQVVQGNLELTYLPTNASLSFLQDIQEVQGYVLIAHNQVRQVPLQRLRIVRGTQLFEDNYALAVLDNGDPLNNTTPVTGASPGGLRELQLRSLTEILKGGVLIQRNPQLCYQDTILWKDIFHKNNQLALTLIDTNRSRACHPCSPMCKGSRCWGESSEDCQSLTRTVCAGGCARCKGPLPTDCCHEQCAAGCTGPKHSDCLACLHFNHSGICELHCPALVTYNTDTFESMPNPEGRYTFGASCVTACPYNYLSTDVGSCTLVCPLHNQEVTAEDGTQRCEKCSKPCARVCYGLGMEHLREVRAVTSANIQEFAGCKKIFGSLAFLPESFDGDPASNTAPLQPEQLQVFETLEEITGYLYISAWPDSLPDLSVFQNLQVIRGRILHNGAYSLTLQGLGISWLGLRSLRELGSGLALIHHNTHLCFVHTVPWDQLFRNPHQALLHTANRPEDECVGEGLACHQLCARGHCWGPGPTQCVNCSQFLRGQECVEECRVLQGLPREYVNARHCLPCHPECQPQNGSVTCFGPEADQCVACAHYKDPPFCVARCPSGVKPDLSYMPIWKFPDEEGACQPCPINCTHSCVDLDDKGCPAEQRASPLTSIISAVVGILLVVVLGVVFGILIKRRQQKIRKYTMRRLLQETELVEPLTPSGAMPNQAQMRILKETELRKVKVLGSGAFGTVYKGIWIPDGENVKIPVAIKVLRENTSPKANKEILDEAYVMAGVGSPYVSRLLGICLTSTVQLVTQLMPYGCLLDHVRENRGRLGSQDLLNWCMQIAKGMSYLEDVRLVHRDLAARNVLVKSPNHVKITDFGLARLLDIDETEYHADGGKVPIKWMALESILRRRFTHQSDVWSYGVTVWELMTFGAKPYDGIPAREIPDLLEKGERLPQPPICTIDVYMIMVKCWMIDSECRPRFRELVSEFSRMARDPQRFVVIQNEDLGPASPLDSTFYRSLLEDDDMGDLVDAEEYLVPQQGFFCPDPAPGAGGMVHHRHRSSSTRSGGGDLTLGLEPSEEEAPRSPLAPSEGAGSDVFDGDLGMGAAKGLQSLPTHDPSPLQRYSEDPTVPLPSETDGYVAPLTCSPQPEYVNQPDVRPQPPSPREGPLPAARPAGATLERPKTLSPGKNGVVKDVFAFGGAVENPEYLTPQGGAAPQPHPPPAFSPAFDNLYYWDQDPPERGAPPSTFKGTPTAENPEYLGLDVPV
Sequence of Serine/threonine-protein kinase PAK 2 (Homo sapiens) (Q13177 whole entry, the tested form may be a part): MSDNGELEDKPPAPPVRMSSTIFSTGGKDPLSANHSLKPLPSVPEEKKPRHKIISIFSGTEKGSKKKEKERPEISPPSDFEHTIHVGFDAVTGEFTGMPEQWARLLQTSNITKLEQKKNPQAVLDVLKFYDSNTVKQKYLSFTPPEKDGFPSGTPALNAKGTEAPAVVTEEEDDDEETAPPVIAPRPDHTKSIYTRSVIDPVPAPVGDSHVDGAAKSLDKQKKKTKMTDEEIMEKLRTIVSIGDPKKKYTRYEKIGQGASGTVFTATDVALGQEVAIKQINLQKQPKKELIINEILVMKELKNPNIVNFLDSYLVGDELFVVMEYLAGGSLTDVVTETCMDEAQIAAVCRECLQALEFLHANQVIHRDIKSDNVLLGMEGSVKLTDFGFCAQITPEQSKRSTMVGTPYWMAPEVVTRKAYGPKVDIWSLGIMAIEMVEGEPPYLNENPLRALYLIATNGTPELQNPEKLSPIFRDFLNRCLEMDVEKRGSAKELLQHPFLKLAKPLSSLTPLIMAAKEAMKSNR

inhibition [1] [%]	inhibition [2] [%]	inhibition [3] [%]	inhibition [4] [%]	inhibition [5] [%]	inhibition [6] [%]	inhibition [7] [%]	inhibition [8] [%]	inhibition [9] [%]	inhibition [10] [%]	inhibition [11] [%]	inhibition [12] [%]	inhibition [13] [%]	inhibition [14] [%]	inhibition [15] [%]	inhibition [16] [%]	inhibition [17] [%]	IC50 [18] [µM]	IC50 [19] [µM]	SMILES	IC50 (PBMC) [µM]	other results
48	4	10	-1	74	9	12	-3	14	5	12	4	10	3	6	6	71	–	–	OCc1ccc(-c2cc3c(N[C@H](CO)c4ccccc4)ncnc3[nH]2)cc1	1.1	–
5	3	7	-2	28	6	10	3	4	6	18	5	5	-7	15	33	15	> 10	> 10	CN(C)CCn1cc(-c2cccc(O)c2)c2c(N)ncnc21	–	–
30	9	6	15	21	7	0	19	1	5	0	-2	3	7	0	2	23	–	–	OC[C@@H](Nc1ncnc2sc(-c3ccc(O)cc3)cc12)c1ccccc1	13 to 13.1	inhibition [20]: 16%
41	14	31	-3	14	6	10	4	6	5	8	1	8	-1	21	6	22	4.9	9.1	CCC(=O)Nc1ccc(-c2c[nH]c3ncnc(N[C@H](C)c4ccccc4)c23)cc1	–	–

Reference: ChEMBL document CHEMBL4152312, “Identification of fused pyrimidines as interleukin 17 secretion inhibitors” (Eur J Med Chem, 2018)
